Assay results reported in ChEMBL document CHEMBL3390831, “Design, synthesis, and structureactivity relationships of indole-3-carboxamides as novel water soluble cannabinoid CB1 receptor agonists” (Medchemcomm, 2010).

Tests used:
[1] = Aqueous solubility of the compound in phosphate buffered saline at pH 7 by shake-flask method; format: physicochemical
[2] = Aqueous solubility of the compound in citrate buffer at pH 5 by shake-flask method; format: physicochemical
Cannabinoid receptor 1 = Cannabinoid receptor 1 (Homo sapiens, UniProt P21554)
Description: Agonist activity at human cannabinoid CB1 receptor expressed in CHO cells co-expressing AP-1 response element after 5 hrs by luciferase reporter gene assay

[3] = Aqueous solubility of the compound in phosphate buffered saline at pH 7.1 by shake-flask method; format: physicochemical

Sequence of Cannabinoid receptor 1 (P21554 whole entry): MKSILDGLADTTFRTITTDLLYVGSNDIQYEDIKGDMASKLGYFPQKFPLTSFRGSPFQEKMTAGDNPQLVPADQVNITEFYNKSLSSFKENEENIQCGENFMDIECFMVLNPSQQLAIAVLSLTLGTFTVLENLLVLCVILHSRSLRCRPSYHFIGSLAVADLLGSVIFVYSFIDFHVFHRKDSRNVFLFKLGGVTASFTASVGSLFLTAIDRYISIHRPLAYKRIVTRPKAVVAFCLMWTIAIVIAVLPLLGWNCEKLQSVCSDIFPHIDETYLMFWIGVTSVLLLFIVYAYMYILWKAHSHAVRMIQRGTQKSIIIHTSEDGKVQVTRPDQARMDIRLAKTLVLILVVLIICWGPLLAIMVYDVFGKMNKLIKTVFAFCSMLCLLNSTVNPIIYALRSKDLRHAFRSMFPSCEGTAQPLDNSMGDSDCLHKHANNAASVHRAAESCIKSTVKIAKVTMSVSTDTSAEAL

Compound: CCN1[C@H](C)CN(C(=O)c2cn(CC3CCCCC3)c3c(OC)cccc23)C[C@@H]1C.Cl
- solubility thermodynamic [1]: 9 µg/mL
- solubility thermodynamic [2]: > 4000 µg/mL

Compound: O=C(NCc1ccccc1)c1cn(CC2CCCCC2)c2ccccc12
- EC50 (Cannabinoid receptor 1): 63.1 nM

Compound: CCN1CCN(C(=O)c2cn(CC3CCCCCC3)c3c(OC)cccc23)CC1
- EC50 (Cannabinoid receptor 1): 794 nM

Compound: CCN1CCN(C(=O)c2cn(CC3CCCCC3)c3ccccc23)CC1
- EC50 (Cannabinoid receptor 1): 316 nM

Compound: CCN1CCN(C(=O)c2cn(CC3CCCCC3)c3ccc(F)cc23)CC1
- EC50 (Cannabinoid receptor 1): 501 nM

Compound: CCN1CCN(C(=O)c2cn(CC3CCCCC3)c3ccc(OC)cc23)CC1
- EC50 (Cannabinoid receptor 1): > 3160 nM

Compound: Cc1cccc2c1c(C(=O)N1CCN(C)CC1)cn2CC1CCCCC1
- EC50 (Cannabinoid receptor 1): > 3160 nM

Compound: COc1cccc2c(C(=O)N3CCN(C)[C@H](C)C3)cn(CC3CCCCC3)c12.Cl
- EC50 (Cannabinoid receptor 1): 126 nM
- solubility thermodynamic [3]: 88 µg/mL
- solubility thermodynamic [2]: 2860 µg/mL

Compound: CCN1CCN(C(=O)c2cn(CC3CCCCC3)c3ccc(Cl)cc23)CC1
- EC50 (Cannabinoid receptor 1): 1260 nM

Compound: CCN1CCN(C(=O)c2cn(CC3CCCCC3)c3cc(Cl)ccc23)CC1
- EC50 (Cannabinoid receptor 1): 1580 nM

Compound: CCN1CCN(C(=O)c2cn(CC3CCCCC3)c3c(Br)cccc23)CC1
- EC50 (Cannabinoid receptor 1): 794 nM

Compound: Cc1ccc2c(c1)c(C(=O)N1CCN(C)CC1)cn2CC1CCCCC1
- EC50 (Cannabinoid receptor 1): 2000 nM

Compound: CN(C)CCNC(=O)c1cn(CC2CCCCC2)c2ccccc12
- EC50 (Cannabinoid receptor 1): > 3160 nM

Compound: Cc1ccc2c(C(=O)N3CCN(C)CC3)cn(CC3CCCCC3)c2c1
- EC50 (Cannabinoid receptor 1): 316 nM

Compound: O=C(N/N=C1\C(=O)N(Cc2ccccc2)c2ccccc21)c1ccccc1
- EC50 (Cannabinoid receptor 1): 631 nM

Compound: CCN1CCN(C(=O)c2cn(Cc3ccccc3)c3c(OC)cccc23)CC1
- EC50 (Cannabinoid receptor 1): > 3160 nM

Compound: CCN1CCN(C(=O)c2cn(CC3CCCCC3)c3c(C)cccc23)CC1
- EC50 (Cannabinoid receptor 1): 200 nM
